Tests used:
MDA-MB-468 cells [1] = assay: Spheroid-formation assay; type: cell-based, human; settings: 1 nM PTX + 1 µM APN inhibitor, 7 days
Protocol: (§1) Cancer stem cells (CSCs) play an important role in the resistance of cancer cells to chemotherapeutic drugs. APN has been reported to be a therapeutic target in human cancer stem cells ([18]). Therefore, the CSC based test was performed in the present study. Colony-formation assay and spheroid-formation assay are two commonly used methods to assess the capacity of CSCs in vitro. In the spheroid-formation assay, MDA-MB-231 and MDA-MB-468 cells were dispersed into single cells, inoculated into low-adherence 6-well plates, and added with stem cell sphere medium. The stem cell spheres became visible after 5-6 days incubation. […] It is known that mRNA levels of the stem cell biomarkers OCT-4, SOX-2 and Nanog are associated with the characteristics of TNBC stem cells ([30]). Therefore, RT-PCR was performed on the TNBC cells to detect the mRNA levels of these markers.
(§2) MDA-MB-231 cells and MDA-MB-468 cells in logarithmic growth phase were collected, stem cell sphere culture medium without serum (containing 50X B-27Supplement,100X N-2 Supplement,20 μg/L epidermal growth factor (EGF), 20µg/L insulin-like growth factor (IGF-1), 10 μg/L fibroblast growth factor (b-FGF), 20X Knock Out SR, 2mM L-Glutamine, 5mg/L Heparin sodium, 1X PENICILLIN-STREPTOMYCIN and DMEM: F12 (1:1) medium was added for the re-suspension and fully blown into single-cell suspension. The cells were diluted to 5,000/2 mL, with stem cell sphere culture medium, and cultured in a 37°C, 5% CO2 cell incubator. The number of stem cell spheres were observed every day. […]

MDA-MB-231 cells [2] = assay: Spheroid-formation assay; type: cell-based, human; settings: 1 nM PTX + 1 µM APN inhibitor, 7 days
Protocol: as §1, §2

[3] = biological target: Aminopeptidase N (APN, CD13) (Homo sapiens, UniProt P15144); assay: APN enzyme inhibitory assay, supernatant of K562-CD13 cells as enzyme source, L-leucine-p-nitro anilide substrate; settings: for inhibition at 30 µM: read-out: Inhibitory rate (%);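 as to all read-outs here: substrate L-leucine-p-nitro anilide used at 1.6 mM, with enzyme from sonicated APN-overexpressing K562 cell lysate supernatant, run in 96-well plates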
Protocol: In the enzyme inhibitory assay, K562-CD13 monoclonal cells were used as APN enzyme source as described in our previous work ([27]).
K562 cells with overexpression of APN were added into PBS for ultrasonic crushing, centrifuged for 10 minutes, and supernatant was taken as enzyme source and added into 96-well plate. Different concentrations of compounds were added subsequently, and 1.6 mM L-leucine-p-nitro anilide was used as substrate. After 30 minutes of reaction, the APN enzyme activity was measured at 405 nm absorbance. The inhibition rate of APN activity was analyzed by the formula (Od control OD tested)/Od control 100%.

[4] = test system: CD13 (APN) expression in MDA-MB-231 cells; assay: Flow cytometry of APN expression; type: cell-based, human; settings: 48 h
Protocol: (§3) The cells were seeded in 6-well plates (4 × 10^5 cells/well) and treated with tested compounds for 48 h. Then, cells were collected into 1.5 mL EP tubes, washed twice with PBS, and centrifuged at 2500rpm for 5minutes. Cells were resuspended with 100μlof PBS, then 2μL/tube of APN antibody was added, followed by incubation in dark for 30 minutes at 4°C. Then the cells were subjected to flow cytometry (FACSAria II, Becton-Dickinson) for the expression of APN.

[5] = test system: CD13 (APN) expression in MDA-MB-468 cells; assay: Flow cytometry of APN expression; type: cell-based, human; settings: 48 h
Protocol: as §3

[6] = test system: luciferase-expressing MDA-MB-231 cells; assay: In vivo anticancer study, xenograft model in female nude mice; settings: 20 mg/kg/d APN inhibitor + 10 mg/kg/3 days PTX; 3 weeks; n = 4
Protocol: To evaluate the in vivo anticancer potency of the combination of PTX-APN inhibitor, cancer xenograft model was established by inoculation of luciferase- expressing MDA-MB-231 cells to female nude mice. About 1×10^7 MDA-MB-231 cells were injected subcutaneously into the right fat pad of the fourth mammary gland of the mice. […] Significant tumor size variations were observed among different groups ( Figures 5A, B ). […] Moreover, no clear signs of toxicity in liver and spleen were detected in the sacrificed mice.
Female Nude mice aged 3 weeks were purchased from Hunan SJA Experimental Animal Company and raised under SPF aseptic conditions. About 1×10^7 luciferase overexpressing MDA-MB-231 cells were injected subcutaneously into the right fat pad of the fourth mammary gland of each mouse. […] PBS group animals received PBS via intraperitoneal injection, while 10 mg/kg/3 days of PTX was administered to animals in the PTX group. […] After 3 weeks of administration, each mouse was intraperitoneally injected with 200uL of fluorescein substrate (d-fluorescein potassium salt, 150mg/kg), and then anesthetized with isoflurane. In vivo fluorescence imaging system (IVIS Spectrum, PerkinElmer) and SlideBook4.0 software were utilized for the result analysis. After the imaging analysis, mice were sacrificed and dissected for the detection of tumor size and calculation of liver/spleen indexes. All animal experiments were approved by the Animal Care and Use Committee of Weifang Medical University.

MDA-MB-468 cells [7] = assay: Apoptosis analysis (Annexin V-FITC/PI); type: cell-based, human; settings: 48 h
Protocol: (§4) Moreover, APN inhibitor-induced chemo-sensitization had been frequently reported for PTX ([17], [29]). Therefore, the combination of PTX-APN inhibitor was selected in the subsequent studies.
(§5) The cells were seeded in 6-well plates (3 × 10^5 cells/well) and treated with various compounds for 48 h. Then, cells were collected and washed twice with cold PBS. Annexin V-FITC staining solution was then added to the cells, and cells were incubated at 2-8°C for 15 minutes under dark conditions. Then, PI staining solution was added by gentle mix at 2-8°C. After 5 minutes of incubation under dark conditions, cells were tested with flow cytometry immediately.

MDA-MB-231 cells [8] = assay: Apoptosis analysis (Annexin V-FITC/PI); type: cell-based, human; settings: 48 h
Protocol: as §4, §5

MDA-MB-468 cells [9] = assay: Colony-formation assay; type: cell-based, human; settings: 0.2 nM PTX + 1 µM APN inhibitor, 14 days
Protocol: as §1
(§6) 3000 cells were suspended in 2 mL medium, and seeded into the wells of six-well plate. After 12 hours of incubation, cells were treated with various compounds. Until each colony had more than 50 cells, this experiment terminated. Cells were washed twice with PBS and fixed with methanol for 10minutes. Then cells were stained with 1% crystal violet for 5minutes. Finally, colonies were washed and pictures were taken under a microscope (IX81, Olympus).

MDA-MB-231 cells [10] = assay: Colony-formation assay; type: cell-based, human; settings: 0.2 nM PTX + 1 µM APN inhibitor, 14 days
Protocol: as §1, §6

MDA-MB-468 cells [11] = assay: MTT antiproliferative assay, chemotherapeutic drug with APN inhibitor; type: cell-based, human; settings: for antiproliferative activity of chemotherapeutic drugs in combination with APN inhibitor: with PTX, EPB, CTX, CBP, 48 h
Text: (§7) The combination of APN inhibitor and paclitaxel (PTX), has been employed for the treatment of human breast cancer. In the current study, molecules with good APN inhibitory potency (D12, D14 and D16) were selected and used in combination with several chemotherapeutic drugs, such as PTX, EPB, cyclophosphamide (CTX) and carboplatin (CBP) to investigate its inhibitory effect on breast cancer. Human triple negative breast cancer cell (TNBC) lines MDA-MB-231 and MDA-MB-468 were utilized in the in vitro studies. […] It was also observed that the synthesized molecules enhanced chemotherapeutic drug sensitivity in a dose dependent manner. Therefore, further analysis was performed to examine the synergistic effects of the derived APN inhibitors and chemotherapeutic drugs.
(§8) Then, 10μL of MTT solution (5 mg/mL) were added to each well. After incubation for 4h, the medium was carefully removed, and 100 μL DMSO was added to each well and fully dissolved in vibration for 10min. The optical density (OD) at 490 nm and 630 nm were measured with a microplate Spectrophotometer (M5, MD). IC50 values were obtained from at least 3 independent experiments.

MDA-MB-231 cells [12] = assay: as above; type: cell-based, human; settings: for antiproliferative activity of chemotherapeutic drugs in combination with APN inhibitor: with PTX, EPB, CTX, CBP, 48 h
Text: as §7, §8

MDA-MB-468 cells [13] = assay: Cellular reactive oxygen species detection (DCFH-DA, flow cytometry); type: cell-based, human; settings: PTX alone, 48 h
MDA-MB-231 cells [14] = assay: as above; type: cell-based, human; settings: PTX alone, 48 h

Chain of Aminopeptidase N (APN, CD13) (P15144 whole entry): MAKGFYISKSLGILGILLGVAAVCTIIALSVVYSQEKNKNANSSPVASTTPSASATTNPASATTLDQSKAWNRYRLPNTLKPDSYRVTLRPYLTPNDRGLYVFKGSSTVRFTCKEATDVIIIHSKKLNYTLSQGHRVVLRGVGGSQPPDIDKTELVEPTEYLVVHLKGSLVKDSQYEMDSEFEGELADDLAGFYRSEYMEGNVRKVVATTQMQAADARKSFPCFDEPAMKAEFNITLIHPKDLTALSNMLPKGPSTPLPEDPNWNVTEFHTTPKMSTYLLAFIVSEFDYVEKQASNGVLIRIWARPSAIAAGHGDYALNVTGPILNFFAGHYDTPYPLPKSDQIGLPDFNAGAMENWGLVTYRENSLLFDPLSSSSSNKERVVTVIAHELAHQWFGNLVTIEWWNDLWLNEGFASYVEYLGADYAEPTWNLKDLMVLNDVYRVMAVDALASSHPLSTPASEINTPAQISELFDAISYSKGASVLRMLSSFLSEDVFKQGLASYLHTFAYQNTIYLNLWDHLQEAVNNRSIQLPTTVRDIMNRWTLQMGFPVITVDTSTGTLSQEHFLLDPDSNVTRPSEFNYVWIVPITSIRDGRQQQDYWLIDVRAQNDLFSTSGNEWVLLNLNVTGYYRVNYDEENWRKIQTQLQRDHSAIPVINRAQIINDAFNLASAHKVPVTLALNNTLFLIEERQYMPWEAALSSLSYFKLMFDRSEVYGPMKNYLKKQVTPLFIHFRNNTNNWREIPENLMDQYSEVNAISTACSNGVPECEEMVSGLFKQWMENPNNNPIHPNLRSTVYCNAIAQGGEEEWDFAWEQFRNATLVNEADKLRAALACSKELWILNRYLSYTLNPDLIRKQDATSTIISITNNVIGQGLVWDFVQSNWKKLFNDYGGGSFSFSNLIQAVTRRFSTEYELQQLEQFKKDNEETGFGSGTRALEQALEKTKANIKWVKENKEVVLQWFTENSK

| Compound | inhibition at 30 µM [3] [%] | IC50 [3] [µM] | number of tumor spheres formed, compared with control and PTX alone (MDA-MB-468 cells [1]) | number of tumor spheres formed, compared with control and PTX alone (MDA-MB-231 cells [2]) | APN expression, combination with PTX compared with paclitaxel alone [4] | APN expression, combination with PTX compared with paclitaxel alone [5] | anticancer effect of PTX (tumor weight) compared with single PTX administration group [6] | inhibitory rate (tumor), in combination with PTX [6] [%] | apoptotic rate in combination with PTX, compared with Bestatin (MDA-MB-468 cells [7]) | apoptotic rate in combination with PTX, compared with Bestatin (MDA-MB-231 cells [8]) | colony formation, compared with control and single PTX (MDA-MB-468 cells [9]) | colony formation, compared with control and single PTX (MDA-MB-231 cells [10]) | antiproliferative activity of chemotherapeutic drugs in combination with APN inhibitor (MDA-MB-468 cells [11]) | antiproliferative activity of chemotherapeutic drugs in combination with APN inhibitor (MDA-MB-231 cells [12]) | ROS levels compared to control group (MDA-MB-468 cells [13]) | ROS levels compared to control group (MDA-MB-231 cells [14]) | APN expression relative to untreated control ([4]; PTX alone) | APN expression relative to untreated control ([5]; PTX alone) | inhibitory potency among the tested chemotherapeutic drugs (MDA-MB-468 cells [11]; chemotherapeutic drug) | inhibitory potency among the tested chemotherapeutic drugs (MDA-MB-231 cells [12]; chemotherapeutic drug) |
| --- | --- | --- | --- | --- | --- | --- | --- | --- | --- | --- | --- | --- | --- | --- | --- | --- | --- | --- | --- | --- |
| CC(C)C[C@H](NC(=O)[C@@H](O)[C@H](N)Cc1ccccc1)C(=O)O [Bestatin, reference compound] | 53.9 ± 0.77 |  | significant decrease in the number of tumor spheres | significant decrease in the number of tumor spheres | decreased APN expression | decreased APN expression | improved the anticancer effect of PTX | 10.63 |  |  |  |  |  |  |  |  |  |  |  |  |
| O=C(Cn1c2c(c3ccccc31)CCN(C(=O)c1cccc(F)c1)C2)NO [Compound D12, 2-(2-(3-fluorobenzoyl)-1,2,3,4-tetrahydro-9H-pyrido[3,4-b]indol-9-yl)-N-hydroxyacetamide] | 74.9 ± 4.35 | 8.92 ± 0.38 | significant decrease in the number of tumor spheres | significant decrease in the number of tumor spheres | decreased APN expression | decreased APN expression | improved the anticancer effect of PTX | 54.02 | higher apoptotic rate | higher apoptotic rate | decreased the tumor sphere and colony formation abilities | decreased the tumor sphere and colony formation abilities | synergistically improved the antiproliferative activity of chemotherapeutic drugs | synergistically improved the antiproliferative activity of chemotherapeutic drugs |  |  |  |  |  |  |
| CC(=O)O[C@H]1C(=O)[C@@]2(C)[C@H]([C@H](OC(=O)c3ccccc3)[C@]3(O)C[C@H](OC(=O)[C@H](O)[C@@H](NC(=O)c4ccccc4)c4ccccc4)C(C)=C1C3(C)C)[C@]1(OC(C)=O)CO[C@@H]1C[C@@H]2O [PTX, Paclitaxel, reference compound] |  |  |  |  |  |  |  |  |  |  |  |  |  |  | increased ROS levels | increased ROS levels | up-regulated APN expression | up-regulated APN expression | highest inhibitory potency | highest inhibitory potency |

Second part, led by results:

| inhibition at 30 µM [3] [%] | IC50 [3] [µM] | Compound | number of tumor spheres formed, compared with control and PTX alone (MDA-MB-468 cells [1]) | number of tumor spheres formed, compared with control and PTX alone (MDA-MB-231 cells [2]) | APN expression, combination with PTX compared with paclitaxel alone [4] | APN expression, combination with PTX compared with paclitaxel alone [5] | anticancer effect of PTX (tumor weight) compared with single PTX administration group [6] | inhibitory rate (tumor), in combination with PTX [6] [%] | apoptotic rate in combination with PTX, compared with Bestatin (MDA-MB-468 cells [7]) | apoptotic rate in combination with PTX, compared with Bestatin (MDA-MB-231 cells [8]) | colony formation, compared with control and single PTX (MDA-MB-468 cells [9]) | colony formation, compared with control and single PTX (MDA-MB-231 cells [10]) | antiproliferative activity of chemotherapeutic drugs in combination with APN inhibitor (MDA-MB-468 cells [11]) | antiproliferative activity of chemotherapeutic drugs in combination with APN inhibitor (MDA-MB-231 cells [12]) | ROS levels compared to control group (MDA-MB-468 cells [13]) | ROS levels compared to control group (MDA-MB-231 cells [14]) | APN expression relative to untreated control ([4]; PTX alone) | APN expression relative to untreated control ([5]; PTX alone) | inhibitory potency among the tested chemotherapeutic drugs (MDA-MB-468 cells [11]; chemotherapeutic drug) | inhibitory potency among the tested chemotherapeutic drugs (MDA-MB-231 cells [12]; chemotherapeutic drug) |
| --- | --- | --- | --- | --- | --- | --- | --- | --- | --- | --- | --- | --- | --- | --- | --- | --- | --- | --- | --- | --- |
| 74.3 ± 6.16 | 7.74 ± 0.33 | O=C(Cn1c2c(c3ccccc31)CCN(C(=O)c1ccccc1F)C2)NO [Compound D14, 2-(2-(2-fluorobenzoyl)-1,2,3,4-tetrahydro-9H-pyrido[3,4-b]indol-9-yl)-N-hydroxyacetamide] | significant decrease in the number of tumor spheres | significant decrease in the number of tumor spheres | decreased APN expression | decreased APN expression | improved the anticancer effect of PTX | 31.32 | higher apoptotic rate | higher apoptotic rate | decreased the tumor sphere and colony formation abilities | decreased the tumor sphere and colony formation abilities | synergistically improved the antiproliferative activity of chemotherapeutic drugs | synergistically improved the antiproliferative activity of chemotherapeutic drugs |  |  |  |  |  |  |
| 74.5 ± 4.66 | 7.9 ± 0.27 | Cc1ccccc1C(=O)N1CCc2c(n(CC(=O)NO)c3ccccc23)C1 [Compound D16, N-hydroxy-2-(2-(2-methylbenzoyl)-1,2,3,4-tetrahydro-9H-pyrido[3,4-b]indol-9-yl)acetamide] | significant decrease in the number of tumor spheres | significant decrease in the number of tumor spheres | decreased APN expression | decreased APN expression | improved the anticancer effect of PTX | 14.15 | higher apoptotic rate | higher apoptotic rate | decreased the tumor sphere and colony formation abilities | decreased the tumor sphere and colony formation abilities | synergistically improved the antiproliferative activity of chemotherapeutic drugs | synergistically improved the antiproliferative activity of chemotherapeutic drugs |  |  |  |  |  |  |

Source: article PMC9168271, “Discovery of Novel Tetrahydro-β-carboline Containing Aminopeptidase N Inhibitors as Cancer Chemosensitizers” (Frontiers in Oncology, 2022)
